{"source": "patent US4020157A", "about": "“Shortened analogs of somatostatin” (Ayerst McKenna and Harrison Ltd., priority 1975, dated 1977)", "origin": "cited, not measured here", "conditions": "reported by D. Sarantakis et al.", "data": [{"substance": "[Ala^3,14 ]-somatostatin (AGAKNFFWKTFTSA; Somatostatin-14; UniProt P61278 103-116, looked up, variant C3A C14A) [somatostatin analog synthesized by solid phase methods (Sarantakis et al.)]", "values": [{"measurement": "activity as % of the potency of somatostatin", "result": "about 0.01%"}]}]}
